{"source": "patent US20200352889A1", "about": "“CYSTATHIONINE COMPOSITIONS AND METHODS OF TREATMENT FOR HEALTH CONDITIONS” (THE REGENTS OF THE UNIVERSITY OF COLORADO, A BODY CORPORATE, priority 2011, published 2020)", "key": {"[1]": {"system": "C57BL/6 WT mice treated with tunicamycin", "experiment": "Tunicamycin-induced hepatic and renal damage in WT mice in the presence and absence of PPG", "assay_type": "in vivo, mouse", "text": "In order to investigate the effects of elevated cystathionine upon the response to ER stress, wild type mice (n=6) were exposed to a single sub-lethal intraperitoneal injection of tunicamycin in the presence and absence of the CGL inactivating compound PPG. WT mice were randomly assigned to one of four treatment groups (n=6 for each group): 1) control, IP injected with PBS; 2) I.P. injection with PPG; 3) single I.P […] tunicamycin and 4) tunicamycin+PPG. In groups 2 and 4, PPG treatment was maintained by daily injection until sacrifice at three days post vehicle/tunicamycin injection. After the completion of this treatment regime, all mice were anaesthetized (isoflourane/oxygen) and sacrificed by decapitation, and blood samples were collected for plasma analysis. Livers and kidneys were removed, weighed and then samples were either immersion-fixed overnight in 4% paraformaldehyde in PBS (pH 7.3) for subsequent histological analysis or were snap frozen in liquid nitrogen and examined for morphological, histological and biochemical analyses.\n(§1) Propensity for hepatic steatosis was examined in HO and wild type control mice using a methionine-choline deficient amino acid defined and iron supplemented diet (#518810 Dyets Inc., Bethlehem, Pa.)) and an isocaloric amino acid defined Lombardi choline sufficient diet with methionine control diet (518754, Dyets Inc., Bethlehem, Pa.) for 19 days as described previously (7). Experimental hypercystathionemia was induced by IP injection of the CGL inactivator PPG (50 mg·day-1·kg-1) as described previously (8). ER stress was induced in mice by a single IP injection with tunicamycin at 0.5 mg/kg body weight (volume <=1.0 ml). Control mice were sham treated by injection with an equal volume of PBS (9,10).\nTissues were immersion-fixed overnight in 4% paraformaldehyde in PBS (pH 7.3). Paraffin embedded sections (5 μm) were stained for examination with hematoxylin and eosin (H and E). Cells undergoing apoptosis were identified by labeling their DNA 3′-OH nick ends using a variant of terminal deoxynucleotidyl transferase-mediated dUTP nick end-labeling (TUNEL) staining. Staining was performed according to the manufacturer's instruction with ApopTag® Peroxidase in Situ Apoptosis Detection Kit (Millipore, Billerica, Mass.). Tissue sections were deparaffinized with xylene and washed in succession with different concentrations of ethanol (absolute, 95% and 70%). Tissue sections were then digested with proteinase K (20 μg/ml) for 15 min. Endogenous peroxidase activity was quenched with 3% H2O2 in PBS for 5 min. The slides were immersed in terminal deoxynucleotidyl transferase (TdT) buffer containing digoxigenin-labeled nucleotides at 37° C. for 1 h. After washing, anti-digoxigenin-peroxidase was added to cover the slides and incubated in a humid chamber at room temperature for 30 min. After washing with PBS, the slides were stained with diaminobenzidine and then counterstained with 1% methyl green. Light microscopy was performed to quantify the apoptotic cells, by counting cells in ten randomly selected fields (×100 magnification) of each slide with the following formula: number of apoptotic cells/total number of cells counted×100.\nA party unaware of the animal's genotype or treatment group performed both histological analysis, of stained slides and TUNEL staining. Liver injury was assessed by determining plasma levels of alanine aminotransferase (ALT) activity using an enzyme-coupled assay with lactic dehydrogenase (LDH) as described previously (12) Liver lipid was extracted using the procedure of Bligh and Dyer (13) and after evaporation of the organic solvent, the triacylglycerol content of each sample was measured in duplicate using an enzymatic method (Sigma-Aldrich)."}, "[2]": {"biological_target": "T1, CGL (Mus musculus, UniProt Q8VCN5)", "T1 construct": "endogenous in cells; host or cells: C57BL/6J wild-type mice (whole animal, in vivo)", "T1 sequence (Q8VCN5 whole entry)": "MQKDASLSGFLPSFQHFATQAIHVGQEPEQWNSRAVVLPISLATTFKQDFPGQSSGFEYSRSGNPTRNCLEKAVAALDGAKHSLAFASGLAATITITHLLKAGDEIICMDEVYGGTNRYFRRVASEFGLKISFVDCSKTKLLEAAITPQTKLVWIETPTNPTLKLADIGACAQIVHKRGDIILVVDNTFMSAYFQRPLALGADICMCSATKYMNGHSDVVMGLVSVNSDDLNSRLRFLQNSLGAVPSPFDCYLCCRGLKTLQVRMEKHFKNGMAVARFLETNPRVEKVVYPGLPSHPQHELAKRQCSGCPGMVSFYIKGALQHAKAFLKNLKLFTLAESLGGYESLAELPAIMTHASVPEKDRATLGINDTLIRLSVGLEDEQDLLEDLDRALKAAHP", "experiment": "Daily injection of PPG in WT mice, plasma cystathionine, Hcy, methionine and cysteine", "assay_type": "in vivo", "procedure": "It is believed that the longevity of this cystathionine accumulation with repeated injections of PPG over time in mice has not been properly examined. Consequently, daily injections of PPG were given to WT mice (n=7) each morning over a period of 4 days. Plasma samples were taken from these mice in the evening of each day by non-lethal tail bleed and the levels of cystathionine, Hcy, methionine and cysteine were determined (FIG. 4). Inactivation of CGL was observed and was accompanied by a 56-fold increase in the plasma level of cystathionine on day 1. […] Cysteine levels subsequently returned to near normal levels as the effects of the PPG treatment diminished.\nas §1\nDetermination of plasma levels of methionine cycle metabolites was performed as described previously (11).\nPrevious work by Abeles and Walsh synthesized and tested a range of acetylenic substrates capable of irreversible inactivation of CGL. […] For our purposes this method has the additional benefit of allowing us to investigate the possible protective effects of elevated cystathionine in isolation from its role as a cysteine donor. To our knowledge, the longevity of this cystathionine accumulation with repeated injections of PPG over time in mice has not been examined. Daily injections of PPG to WT mice were given (n=7) each morning over a period of 4 days. Plasma samples were taken from these mice in the evening of each day by non-lethal tail bleed and the levels of cystathionine, Hcy, methionine and cysteine were determined (FIG. 4). It was observed that inactivation of CGL was accompanied by a 56-fold increase in the plasma level of cystathionine on day 1. […] Cysteine levels subsequently returned to near normal levels as the effects of the PPG treatment diminished. These experiments allowed us to define an optimal time frame for examining the possible protective effects of PPG mediated cystathionine accumulation in WT mice. The effect of PPG on liver health was assessed by determining ALT values before PPG treatment and at each subsequent time point studied."}, "[3]": {"conditions": "tunicamycin 0.5 mg/kg single IP + daily PPG, three days"}, "[4]": {"conditions": "daily PPG IP, declined back to normal as PPG efficacy diminished"}}, "note": "“Also recorded” adds a separate entry of the source."}
{"compound": "C#CCC(N)C(=O)O", "note": "(racemic) [PPG, D,L-2-amino-4-pentynoic acid]", "values": [{"measurement": "apoptosis (Tunel staining)", "setting": "[1]; PPG alone control group", "value": "No apoptosis was observed"}, {"measurement": "morphological alteration (histology)", "setting": "[1]; PPG alone control group", "value": "no significant morphological alteration"}, {"measurement": "size and appearance of livers and kidneys", "setting": "[1]; PPG alone control group", "value": "normal in size and appearance"}, {"measurement": "liver weight vs control groups", "setting": "[1]; [3]", "value": "did not differ significantly from the control groups"}, {"measurement": "plasma ALT levels vs control groups", "setting": "[1]; [3]", "value": "did not differ significantly from the control groups"}, {"measurement": "triglyceride levels vs control groups", "setting": "[1]; [3]", "value": "did not differ significantly from the control groups"}, {"measurement": "gross appearance of livers and kidneys", "setting": "[1]; tunicamycin + PPG, three days", "value": "appeared ostensibly normal; also recorded: this effect was not apparent"}, {"measurement": "tunicamycin-induced morphological changes in liver and kidney (H and E histology)", "setting": "[1]; tunicamycin + PPG, three days", "value": "effectively ablated; also recorded: significantly attenuated"}, {"measurement": "apoptotic cells in kidney (Tunel staining)", "setting": "[1]; tunicamycin treated mice pretreated with PPG", "value": "No apoptotic cells were observed"}, {"measurement": "increase in the plasma level of cystathionine", "setting": "[2]; daily PPG IP 50 mg/kg/day, day 1, vs untreated animals", "value": 56, "unit": "fold"}, {"measurement": "increase in the plasma level of cystathionine", "setting": "[2]; daily PPG IP, day 3", "value": 30, "unit": "fold"}, {"measurement": "increase in the plasma level of cystathionine", "setting": "[2]; daily PPG IP, day 4, vs untreated animals", "value": 8, "unit": "fold"}, {"measurement": "plasma methionine", "setting": "[2]; [4]", "value": "relatively mild elevation"}, {"measurement": "plasma total Hcy (tHcy)", "setting": "[2]; [4]", "value": "relatively mild elevation"}, {"measurement": "plasma cysteine levels", "setting": "[2]; daily PPG IP, first and second days", "value": "concomitant decrease"}, {"measurement": "plasma cystathionine accumulation", "setting": "[2]; daily PPG IP, second day", "value": "maximal accumulation persisted"}]}
